The inhibition is the share of the control response that was lost under treatment.

These results are taken from patent US6635671B1, “Compounds which affect mRNA stability and uses therefor” (Novation Pharmaceuticals Inc., priority 1998, dated 2003).

Experiment [1] concerns THP-1 clone No. 63 (pGL2_Neo30; luciferase mRNA with three tandem AUUUA motifs of the IL-1β 3′UTR). Put plainly: Luciferase reporter gene assay, clone No. 63 (pGL2_Neo30, with mRNA instability sequence). Conditions: for Luciferase reporter gene assay, luciferase activity: clone 63; for inhibition at 1 µM: Homo sapiens, THP-1, clone No. 63. Format: cell-based, human. Set-up: Luciferase reporter gene assay, luciferase activity: unit not given here. From the text:
(§1) In order to obtain a vector for stable integration into THP-1 cells, a XhoI-SalI fragment of the neo resistant gene (expressing aminoglycoside 3′ phosphotransferase) derived from pMCIneo (Stratagene) is subcloned into the SalI site of pGL2Control (Promega). This resulting plasmid was called pGL2_Neo. A 30 bp fragment (containing three tandem AUUUA motifs, based on the IL-Iβ3′UTR sequence) obtained by annealing two complementary synthetic oligonucleotides (see FIG. 1) is subcloned into pGL2 Neo using the PflM1 restriction site.
(§2) The resulting vectors pGL2_Neo30 and pGL2_Neo are transfected into THP-1 cells by electroporation. 10^7 cells/ml in 1.3 mM KH2PO4, 7.36 m.M Na2HPO4, 2.44 mM KCl, 124 mm NaCl, 5 mM glucose, 9.6 μM MgCl2 and 16 μM CaCI2 pH 7.2 are transfected with 20 μg of DNA in a Bio-Rad Gene Pulser (250V, 690 μF and indefinite resistance) using a 0.4 cm cuvette. Cells are subsequently cultured in RPMI medium containing 10%FBS, 2mM L-Gln (L-glutamine), 50 μM 2mercaptoethanol and 600 μg/ml of G418 (geneticin). After transfection of pGL2_Neo30 and pGL2_Neo into THP-1 cells, stable cell lines are obtained by selection for G418 resistance and assayed for luciferase activity. One cell line of each transfection is chosen for further analysis; the pGL2_Neo30 cell line is referred to as clone No. 63 and the pGL2_Neo cell line as clone No. 53. No endogenous luciferase activity could be detected in normal THP-1 cells.
(§3) The transfected human monocytic leukemia cell lines, clones No. 53 and 63 are grown in RPMI medium supplemented with 110 U/ml penicillin, 100 μg/ml streptomycin, 2 mM L-Gln and 2 g/l NaHCO3. Heat-treated FBS (5%) is added before use. The cells are grown to a density of 5×10^5/ml and induced to differentiate with 100 U/ml (final concentration) γIFN. Three hours later, 10 μl of LPS (5 μg/ml final concentration) is added. This time point is designated time 0. Compounds are added at various times after LPS addition as indicated.
(§4) In order to adapt the system to the use of 96 well plates, cells are grown in Packard flat bottom white polystyrene microplates (Cat No.6005180) in RPMI medium lacking phenol red (AMIMED). Cells are plated at 5×10^4/well. After treatment of the cells, luciferase is measured using the Packard Luc Lite system (Cat. No.601691 1) according to the manufacturer's instructions in a final volume of 205 μl. Briefly, to a cell suspension of 5×10^5 cells/ml, γIFN (1000 U/ml Boehringer Mannheim No. 1050494) to a final concentration of 100 U/ml and 0.25% (v/v) Luc Lite Enhancer is added. After a 3 hour incubation LPS (50 μg/ml SIGMA L-8274) is added to give 5 μg/ml final concentration. The cells are then plated at 5×10^4/100 l/well into flat bottom white polystyrene microplates (Packard, Cat No. 6005180) and incubated for 16 hours. 5 μl of compound solution or control vehicle is then added and the cells are further incubated as indicated. 100 μl of luciferase substrate solution is added and the plates are covered with TopSeal-A press-on adhesive sealing film (Packard Cat.No. 6005185) before measuring luminescence with a Packard Top Count Scintillation Counter at 22° C. The luciferase signal is stable for at least 90 min.
(§5) The THP-1 cell lines, clone No. 63 (containing PGL2_Neo30) and clone No. 53 (containing pGL2-Control) are grown, differentiated and stimulated with γIFN and LPS identical to normal THP-1 cells. Radicicol analog A is added 16 hours after the addition of LPS and cell extracts are then taken 8 hours later or as indicated. Luciferase activity is inhibited by 1 μM radicicol analog A on average by 50%±17%, in some cases inhibition was as great as 93%, whereas up to 5×10^−6M of radical analog A has no effects on the control clone No. 53, FIG. 3 (solid bars indicate clone No. 53, open bars clone No. 63).
(§6) A number of radicicol analogues are tested for their activity in the reporter assay substantially as described in the previous Examples.
Background: Reporter assays use an easily measured gene product as a stand-in for the process of interest.

The test system of experiment [2] is THP-1 clone No. 53 (pGL2_Neo / pGL2-Control). Put plainly: Luciferase reporter gene assay, control clone No. 53 (no instability sequence). Format: cell-based, human. Set-up: Luciferase reporter gene assay, luciferase activity: unit not given here. Particulars: for Luciferase reporter gene assay, luciferase activity: clone 53.
Text: as §1, §2, §3, §4, §5, §6

The subject of a further experiment is IL-1β. Conditions: THP-1 cells activated by IFN-γ and LPS; cited from earlier work.
The subject of the next experiment is IL-1β mRNA. Particulars: THP-1 cells activated by IFN-γ and LPS; cited from earlier work.
In the next experiment the test system is TNF-α mRNA. Conditions: THP-1 cells activated by IFN-γ and LPS; cited from earlier work.
A further experiment deals with IL-6 mRNA. Particulars: THP-1 cells activated by IFN-γ and LPS; cited from earlier work.

The structures appear in SMILES notation. Where two headings read alike, the source gives them in different places.

For `C[C@@H]1C[C@H]2O[C@@H]2CCCCC(=O)Cc2c(Cl)c(O)cc(O)c2C(=O)O1`, the “Luciferase reporter gene assay, luciferase activity” value (“Luciferase reporter gene assay” below) in experiment [1] (0.5 μM) is recorded as 88; in experiment [1] (1 μM), 64; in experiment [1] (5 μM), 57; in experiment [2] (0.5 μM), 99; in experiment [2] (1 μM) it was 77; in experiment [2] (5 μM) it was 69.
Turning to `COc1cc(O)c2c(c1OC)/C=C/C[C@H](O)[C@H](O)C(=O)/C=C/C[C@H](C)OC2=O`, the “Luciferase reporter gene assay” value is 96 in experiment [1] (0.5 μM); 94 in experiment [1] (1 μM); 7 in experiment [1] (5 μM); 97 in experiment [2] (0.5 μM); 91 in experiment [2] (1 μM); 55 in experiment [2] (5 μM).
As to `C[C@@H]1C[C@H]2O[C@@H]2/C=C\C=C\C(=O)Cc2c(Cl)c(O)cc(O)c2C(=O)O1`, the “Luciferase reporter gene assay” value was found to be 42 in experiment [1] (0.5 μM); 18 in experiment [1] (1 μM); 3 in experiment [1] (5 μM); 68 in experiment [2] (0.5 μM); 51 in experiment [2] (1 μM); 40 in experiment [2] (5 μM).
Take `COc1cc(O)c2c(c1)/C=C/CC(O)C(O)C(=O)/C=C\CC(C)OC2=O` (stereo not shown): the “Luciferase reporter gene assay” value came out at 97 in experiment [1] (0.5 μM); 88 in experiment [1] (1 μM); 87 in experiment [1] (5 μM); 114 in experiment [2] (0.5 μM); 105 in experiment [2] (1 μM); 107 in experiment [2] (5 μM).
For `COc1cc(O)c2c(c1OC)/C=C/C[C@H](O)[C@H](O)C(=O)/C=C\C[C@H](C)OC2=O` [drawing 13], the “Luciferase reporter gene assay” value in experiment [1] (0.5 μM) turned out to be 69; in experiment [1] (1 μM), 32; in experiment [1] (5 μM) it was 9; in experiment [2] (0.5 μM), 136; in experiment [2] (1 μM), 140; in experiment [2] (5 μM), 108.
With `COc1cc(O)c2c(c1OC)/C=C/C[C@H](O)[C@H](O)C(=O)/C=C\C[C@H](C)OC2=O` [radicicol analog A], the “Secretion of IL-1β” value in the experiment with IL-1β is recorded as “inhibited the secretion of IL-1β”. Moreover, the “Time of degradation of IL-1β mRNA to undetectable levels” value with IL-1β mRNA was 5 to 8 h. Besides, in the experiment on TNF-α mRNA, the “Time of degradation of TNF-α mRNA to undetectable levels” value was 5 to 8 h. Besides, the “Time of degradation of IL-6 mRNA to undetectable levels” value in the experiment on IL-6 mRNA was 5 to 8 h. In addition, the inhibition at 1 µM in experiment [1] (1 μM, added 16 h after LPS, extracts 8 h later, read-out: Inhibition of luciferase activity, on average) amounted to 50%; in experiment [1] (1 μM, read-out: Inhibition of luciferase activity, greatest inhibition in some cases), 93%. Further, the “Effect on luciferase activity of control clone” value in experiment [2] (clone No. 53, up to 5×10^−6M) is recorded as “no effects”.
On to `C[C@@H]1C[C@H]2O[C@@H]2CCCCC(=O)Cc2cc(O)cc(O)c2C(=O)O1`, for which the “Luciferase reporter gene assay” value in experiment [1] (0.5 μM) was 80; in experiment [1] (1 μM), 66; in experiment [1] (5 μM) it was 61; in experiment [2] (0.5 μM) it was 83; in experiment [2] (1 μM), 81; in experiment [2] (5 μM) it was 70.
With `COc1cc(O)c2c(c1)/C=C/CC(O)C(O)C(=O)CCCC(C)OC2=O` (stereo not shown), the “Luciferase reporter gene assay” value in experiment [1] (0.5 μM) turned out to be 107; in experiment [1] (1 μM), 93; in experiment [1] (5 μM), 70; in experiment [2] (0.5 μM) it was 103; in experiment [2] (1 μM), 122; in experiment [2] (5 μM), 104.
